Measured values taken from PubChem BioAssay (NCI).
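96-well plates; 48 h exposure; 5 concentrations. Endpoints by linear interpolation between flanking doses. Not reached: highest tested concentration assigned. GI50: concentration for 50% inhibition of growth. TGI: concentration producing complete growth inhibition.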

System: UACC-257 melanoma
Test: DTP human tumour cell line panel, 48 h

Question: Which TGI does the source give for COc1cc(C[P+](c2ccccc2)(c2ccccc2)c2ccccc2)cc(OC)c1OC here?
Answer: > 100 µM

Question: Which results are given for C=C(C)[C@@H]1CC[C@]2(CN)CC[C@]3(C)[C@H](CC[C@@H]4[C@@]5(C)CCCNC(C)(C)[C@@H]5CC[C@]43C)[C@@H]12?
Answer: GI50: 2.09 µM; TGI: 4.35 µM

Question: How did the TGI turn out when CCCN(CCC)c1c([N+](=O)[O-])cc(C(=O)N(CC)CC)cc1[N+](=O)[O-] was run?
Answer: 43.3 µM

Question: For C=C(CN(C)Cc1ccccc1)c1ccc(NC(=O)c2ccc(C(=C)CN(C)Cc3ccccc3)cc2)cc1, which GI50 is on record?
Answer: > 100 µM

Question: And the TGI?
Answer: > 100 µM

Question: COC(=N)c1csc(C2OC(CO)C(O)C2O)n1 (stereo not given) was tested. Which TGI did it give?
Answer: > 100 µM

Question: For CN1Nc2ccccc2CC1=O, which TGI is on record?
Answer: > 100 µM

Question: With O=C(CNc1ccc(Cl)cc1Cl)Nn1c(-c2ccccc2)nc2ccccc2c1=O as the molecule, how does the TGI read?
Answer: 48.6 µM

Question: What does the source list for CO[C@@H]1CC[C@]2(C)OC[C@H](C)[C@@H]3C[C@@H](C)[C@@H](OC(C)=O)[C@@H]4[C@H]3[C@@H]2O[C@H]4C[C@@]1(C)O?
Answer: GI50: > 100 µM; TGI: > 100 µM

Question: With Oc1oc(C(=C2N=c3ccccc3=N2)c2ccc(Cl)cc2)c(O)c1-c1ccc(Cl)cc1 as the molecule, how does the TGI read?
Answer: 6.45 µM

Question: For CSC[C@H](NC(=O)COc1cccc2cnccc12)C(=O)NC(Cc1ccccc1)C(O)C(=O)N1CSC[C@H]1C(=O)NC(C)(C)C (stereo not given in full), which TGI is on record?
Answer: > 100 µM

Question: For Cc1nc2c(N)ncnc2o1, which TGI is on record?
Answer: > 100 µM

Question: What does the source list for CCN(Cc1c(F)cccc1OC)c1ccc(CO)c(Cl)c1?
Answer: GI50: 0.0523 µM; TGI: 0.226 µM

Question: With CCOC(=O)c1c(C)c2c(n1Cc1ccccc1)CSCC2=O as the molecule, how does the GI50 read?
Answer: 26.9 µM

Question: And the TGI?
Answer: 94.1 µM

Question: For CCCCCCCCCCCC[N+]12CC[N+](CCN)(CC1)CC2, which TGI is on record?
Answer: > 100 µM

Question: Which GI50 does the source give for C[C@H](CCOc1cccc(CC(=O)O)c1)N(Cc1cccc(C(F)(F)F)c1Cl)CC(c1ccccc1)c1ccccc1 here?
Answer: 10.2 µM

Question: And the TGI?
Answer: 25.2 µM

Question: For O=[N+]([O-])c1cccnc1N=Nc1c(O)[nH]c2ccccc12, which TGI is on record?
Answer: 44.6 µM

Question: Which TGI does the source give for O=C1C=C(Nc2ccc(Cl)cc2C(=O)c2ccccc2)c2ccccc2C1=O here?
Answer: > 100 µM

Question: How did the TGI turn out when O=C1C=C(c2c(O)ccc3ccccc23)c2cc(O)ccc2C1=O was run?
Answer: 33.1 µM

Question: What does the source list for CCN(CCNS(C)(=O)=O)c1ccc(N)c(C)c1?
Answer: GI50: 13.4 µM; TGI: 27.1 µM

Question: For O=C(c1ccc([N+](=O)[O-])cc1[N+](=O)[O-])N(/N=C/C=C/c1ccccc1)c1nnc(-c2ccccc2)c(-c2ccccc2)n1, which TGI is on record?
Answer: > 100 µM

Question: COc1ccc(NC(=O)CSc2nnc(-c3ccc(NC(C)=O)cc3)o2)cc1 was tested. Which TGI did it give?
Answer: 41.7 µM

Question: How did the GI50 turn out when NNc1ncnc2nc[nH]c12 was run?
Answer: 57.6 µM

Question: What about the TGI of the same molecule?
Answer: > 100 µM

Question: With NCCCn1c2c(c3ccc([N+](=O)[O-])cc3c1=O)C(=O)c1cc(I)ccc1-2 as the molecule, how does the GI50 read?
Answer: 1.1 µM

Question: And the TGI?
Answer: 2.55 µM

Question: For CN(Cc1cnc2nc(N)nc(N)c2n1)c1ccc(C(=O)N[C@@H](CCS(=O)(=O)O)C(=O)O)cc1, which TGI is on record?
Answer: > 100 µM

System: SR leukemia
Test: DTP human tumour cell line panel, 48 h

Question: Nc1c(C(=O)Nc2ccccn2)sc2nc3c(cc12)C(=O)CCC3 was tested. Which GI50 did it give?
Answer: 2.75 µM

Question: What about the TGI of the same molecule?
Answer: > 100 µM

Question: How did the GI50 turn out when COc1ccc(Cl)cc1NC(=O)c1ccc(NC2=C(Cl)C(=O)N(Cc3ccccc3)C2=O)cc1 was run?
Answer: 2.76 µM

Question: And the TGI?
Answer: 9.87 µM

Question: Which results are given for Cc1cccc(NC2=C(Cl)C(=O)c3nc(C)ccc3C2=O)c1?
Answer: GI50: 1.22 µM; TGI: > 100 µM

Question: For O=Cc1cc2c(cc1-c1cc3c(cc1C=O)OCO3)OCO2, which TGI is on record?
Answer: 71 µM

Question: Which TGI does the source give for C/C(=N\NC(N)=O)c1sc(-c2nc(C)c(/C(C)=N/NC(N)=O)s2)nc1C here?
Answer: 43.5 µM

Question: CN(C)CCNC(=O)Cc1ccccc1Nc1c(Cl)cccc1Cl was tested. Which TGI did it give?
Answer: 37.7 µM

Question: Which GI50 does the source give for COc1cc2c(cc1OCCCN1CCN(CCCOc3cc4c(cc3OC)C(=O)N3CC(F)(F)C[C@H]3C=N4)CC1)N=C[C@@H]1CC(F)(F)CN1C2=O here?
Answer: 0.882 µM

Question: What about the TGI of the same molecule?
Answer: 11.4 µM

Question: For C[N+](C)(C)CC(=O)N/N=C(/Cc1cc(=O)oc2cc(O)ccc12)C(=O)Nc1ccc(Cl)cc1, which TGI is on record?
Answer: > 100 µM

Question: With COc1cccc2c1O/C(=C\c1ccc([N+](=O)[O-])s1)C2=O as the molecule, how does the GI50 read?
Answer: 0.279 µM

Question: And the TGI?
Answer: 2.93 µM

Question: Which TGI does the source give for FC(F)(F)c1ccc2nc(NCc3ccccc3)c(-c3ccccc3)nc2c1 here?
Answer: 80.8 µM

Question: COc1cc(C[P+](c2ccccc2)(c2ccccc2)c2ccccc2)cc(OC)c1OC was tested. Which TGI did it give?
Answer: > 100 µM

Question: Which TGI does the source give for CCCN(CCC)c1c([N+](=O)[O-])cc(C(=O)N(CC)CC)cc1[N+](=O)[O-] here?
Answer: 55.2 µM

Question: With O=C(CNc1ccc(Cl)cc1Cl)Nn1c(-c2ccccc2)nc2ccccc2c1=O as the molecule, how does the TGI read?
Answer: > 100 µM

Question: How did the GI50 turn out when CO[C@@H]1CC[C@]2(C)OC[C@H](C)[C@@H]3C[C@@H](C)[C@@H](OC(C)=O)[C@@H]4[C@H]3[C@@H]2O[C@H]4C[C@@]1(C)O was run?
Answer: > 100 µM

Question: What about the TGI of the same molecule?
Answer: > 100 µM

Question: Which TGI does the source give for Oc1oc(C(=C2N=c3ccccc3=N2)c2ccc(Cl)cc2)c(O)c1-c1ccc(Cl)cc1 here?
Answer: 12.6 µM

Question: CSC[C@H](NC(=O)COc1cccc2cnccc12)C(=O)NC(Cc1ccccc1)C(O)C(=O)N1CSC[C@H]1C(=O)NC(C)(C)C (stereo not given in full) was tested. Which TGI did it give?
Answer: > 100 µM
